# Measured values: patent publication US9394346B2, “Method for producing an amino acid using a bacterium overexpressing an rhtC gene” (priority 1998, dated 2016)
# Experiments:
# Format in all cases: cell-based, E. coli
# N99/pRhtC = assay: MIC of amino acids and analogues on M9 agar, strain N99/pRhtC; conditions: Escherichia coli; N99/pRhtC (multicopy rhtC); M9 agar (2%), about 10^4 viable cells, doubling increments
# Description: (§1) Therefore, the effect of the pRhtB and pRhtC plasmids on susceptibility of the strain N99 which is a streptomycin-resistant (Str^R) mutant of the known strain W3350 (VKPM B-1557) to some amino acids and amino acid analogues was tested. Overnight broth cultures (10^9 cfu/ml) of the strains N99/pUC21, N99pUK21, N99/pRhtB and N99/pRhtC were diluted 1:100 in M9 minimal medium and grown for 5 h in the same medium. Then the log phase cultures thus obtained were diluted and about 10^4 viable cells were applied to well-dried test plates with M9 agar (2%) containing doubling increments of amino acids or analogues. Thus the minimum inhibitory concentrations (MIC) of these compounds were examined.
# N99/pRhtB = assay: MIC of amino acids and analogues on M9 agar, strain N99/pRhtB; conditions: Escherichia coli
# Description: as §1
# N99/pUC21 = assay: MIC of amino acids and analogues on M9 agar, strain N99/pUC21; conditions: Escherichia coli; N99/pUC21 (vector control; same data with N99/pUK21); M9 agar (2%), about 10^4 viable cells, doubling increments
# Description: as §1
SMILES,MIC (N99/pRhtC),MIC (N99/pRhtB),MIC (N99/pUC21)
CN(C)CC(N)C(=O)O (racemic) [4-aza-DL-leucine],50 µg/mL,100 µg/mL,50 µg/mL
"NCCSC[C@H](N)C(=O)O [AEC, S-(2-aminoethyl)-L-cysteine]",5 µg/mL,20 µg/mL,5 µg/mL
"CCC(O)C(N)C(=O)O (stereo not drawn) [AHVA, α-amino-β-hydroxyvaleric-acid]",15000 µg/mL,2000 µg/mL,100 µg/mL
N[C@@H](Cc1c[nH]cn1)C(=O)O [L-histidine],40000 µg/mL,5000 µg/mL,5000 µg/mL
N[C@@H](CCO)C(=O)O [L-homoserine],1000 µg/mL,20000 µg/mL,1000 µg/mL
C[C@@H](O)[C@H](N)C(=O)O [L-threonine],80000 µg/mL,40000 µg/mL,30000 µg/mL
CC(C)[C@H](N)C(=O)O [L-valine],2 µg/mL,0.5 µg/mL,0.5 µg/mL
CO[C@H](C)[C@H](N)C(=O)O [O-methyl-L-threonine],20 µg/mL,20 µg/mL,20 µg/mL
